According to US9034896B2, “N-(imidazolidin-2-ylidene)-heterocyclopenta[b]pyridine derivatives as modulators of alpha 2 adrenergic receptors” (Allergan, Inc., priority 2011, dated 2015):

Legend:
Type in all cases: cell-based
[1] = target: T1, Alpha 2C adrenergic receptor (Homo sapiens, UniProt P18825); experiment: RSAT (Receptor Selection and Amplification Technology) assay, alpha 2C; settings: for Intrinsic Activity (efficacy) Alpha 2C: relative efficacy compared to a standard full agonist; for EC50: read-out: Intrinsic Activity EC50 Alpha 2C
T1 construct: expressed in transfected cells
T1 sequence (P18825 1-462): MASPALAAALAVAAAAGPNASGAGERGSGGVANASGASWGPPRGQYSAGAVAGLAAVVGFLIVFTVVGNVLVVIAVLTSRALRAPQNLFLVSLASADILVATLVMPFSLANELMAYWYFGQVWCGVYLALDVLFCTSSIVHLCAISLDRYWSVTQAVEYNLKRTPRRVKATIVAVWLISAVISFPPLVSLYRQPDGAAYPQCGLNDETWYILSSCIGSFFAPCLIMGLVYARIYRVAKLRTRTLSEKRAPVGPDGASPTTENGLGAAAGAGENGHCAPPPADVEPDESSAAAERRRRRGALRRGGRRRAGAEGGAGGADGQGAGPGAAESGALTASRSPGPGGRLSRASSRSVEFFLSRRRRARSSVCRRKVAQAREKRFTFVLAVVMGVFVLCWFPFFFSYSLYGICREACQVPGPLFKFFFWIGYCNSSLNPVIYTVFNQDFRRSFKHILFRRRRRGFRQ
Method: (§1) Cells expressing each of the alpha 2 adrenergic receptors alone were incubated with the various compounds and a receptor-mediated growth response was measured. The compound's activity is expressed as its relative efficacy compared to a standard full agonist (see Table 3).

[2] = target: T2, Alpha 2A adrenergic receptor (Homo sapiens, UniProt P08913); experiment: RSAT (Receptor Selection and Amplification Technology) assay, alpha 2A; settings: for EC50: cells expressing alpha 2A receptor alone, receptor-mediated growth response, NA = not active, read-out: Intrinsic Activity EC50 Alpha 2A; for Intrinsic Activity (efficacy) Alpha 2A: relative efficacy compared to a standard full agonist
T2 construct: expressed in transfected cells
T2 sequence (P08913 1-465): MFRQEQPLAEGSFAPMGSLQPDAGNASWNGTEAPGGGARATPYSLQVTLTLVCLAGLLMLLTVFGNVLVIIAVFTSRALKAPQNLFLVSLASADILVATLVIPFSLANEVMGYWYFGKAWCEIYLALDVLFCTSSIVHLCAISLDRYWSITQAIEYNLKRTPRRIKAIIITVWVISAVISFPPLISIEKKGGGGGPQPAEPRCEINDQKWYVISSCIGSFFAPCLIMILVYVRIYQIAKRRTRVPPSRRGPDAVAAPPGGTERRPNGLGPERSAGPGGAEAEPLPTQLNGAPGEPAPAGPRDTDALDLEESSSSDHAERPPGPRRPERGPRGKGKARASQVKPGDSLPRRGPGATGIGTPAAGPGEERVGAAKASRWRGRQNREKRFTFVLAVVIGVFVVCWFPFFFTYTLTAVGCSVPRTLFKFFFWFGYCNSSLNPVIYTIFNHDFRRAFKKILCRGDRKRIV
Method: as §1

[3] = target: T3, Alpha 2B adrenergic receptor (Homo sapiens, UniProt P18089); experiment: RSAT (Receptor Selection and Amplification Technology) assay, alpha 2B; settings: for Intrinsic Activity EC50 Alpha 2B / EC50: cells expressing alpha 2B receptor alone, receptor-mediated growth response, NA = not active; for Intrinsic Activity (efficacy) Alpha 2B: relative efficacy compared to a standard full agonist; for EC50: read-out: Intrinsic Activity EC50 Alpha 2B
T3 construct: expressed in transfected cells
T3 sequence (P18089 1-450): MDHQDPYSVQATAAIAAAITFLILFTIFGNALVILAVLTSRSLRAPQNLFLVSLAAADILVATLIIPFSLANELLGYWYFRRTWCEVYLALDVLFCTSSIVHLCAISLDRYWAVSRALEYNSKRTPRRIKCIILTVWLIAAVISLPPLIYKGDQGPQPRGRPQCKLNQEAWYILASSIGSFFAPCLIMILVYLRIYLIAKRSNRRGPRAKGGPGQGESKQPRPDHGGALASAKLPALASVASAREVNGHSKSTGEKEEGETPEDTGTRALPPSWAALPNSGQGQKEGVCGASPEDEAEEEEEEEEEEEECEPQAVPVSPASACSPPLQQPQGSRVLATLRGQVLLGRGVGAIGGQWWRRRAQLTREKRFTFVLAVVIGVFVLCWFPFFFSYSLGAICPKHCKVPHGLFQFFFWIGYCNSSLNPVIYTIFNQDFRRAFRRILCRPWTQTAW
Method: as §1

[4] = cells expressing alpha 2C receptor alone, receptor-mediated growth response, NA = not active

| SMILES | Intrinsic Activity EC50 Alpha 2C [1, 4] | Intrinsic Activity (efficacy) Alpha 2C [1] | EC50 [2] [nM] | Intrinsic Activity (efficacy) Alpha 2A [2] | Intrinsic Activity EC50 Alpha 2B [3] | Intrinsic Activity (efficacy) Alpha 2B [3] | EC50 [1, 4] [nM] | EC50 [3] [nM] |
| --- | --- | --- | --- | --- | --- | --- | --- | --- |
| Cc1c(N=C2NCCN2)cnc2[nH]ccc12 [Compound 1, N-(4,5-dihydro-1H-imidazol-2-yl)-4-methyl-1H-pyrrolo[2,3-b]pyridin-5-amine] | potent | (0.94) | 8.2 | 0.85 | potent | (0.82) |  |  |
| Clc1c(N=C2NCCN2)cnc2[nH]ccc12 [Compound 2, 4-Chloro-N-(imidazolidin-2-ylidene)-1H-pyrrolo[2,3-b]pyridin-5-amine] |  | 0.91 | 25.2 | 0.73 |  | 0.72 | 10.5 | 5.36 |
| Brc1c(N=C2NCCN2)cnc2[nH]ccc12 [Compound 3, 4-Bromo-N-(imidazolidin-2-ylidene)-1H-pyrrolo[2,3-b]pyridin-5-amine] |  | 0.84 | 62.2 | 0.16 |  | 0.17 | 31.2 | 32.6 |
| Cn1ccc2cc(N=C3NCCN3)cnc21 [Compound 4, N-(imidazolidin-2-ylidene)-1-methyl-1H-pyrrolo[2,3-b]pyridin-5-amine] |  | 0.93 |  |  |  | 0.57 | 31 | 114 |
| c1cc2cc(N=C3NCCN3)cnc2o1 [Compound 5, N-(imidazolidin-2-ylidene)furo[2,3-b]pyridin-5-amine] |  | 0.73 |  |  |  |  | 2110 |  |
| c1nc2cc(N=C3NCCN3)cnc2s1 [Compound 6, N-(4,5-dihydro-1H-imidazol-2-yl)thiazolo[5,4-b]pyridin-6-amine] |  | 0.97 |  |  |  | 0.46 | 10 | 267 |
| c1cc2cc(N=C3NCCN3)cnc2[nH]1 [Compound 7, N-(imidazolidin-2-ylidene)-1H-pyrrolo[2,3-b]pyridin-5-amine] |  | 0.94 | 16.2 | 0.89 | potent | (0.87) | 7.3 |  |
| c1nc2cc(N=C3NCCN3)cnc2[nH]1 [Compound 8, N-(imidazolidin-2-ylidene)-3H-imidazo[4,5-b]pyridin-6-amine] |  | 0.87 |  |  |  | 0.61 | 448 | 722 |
